Measurements reported in ChEMBL document CHEMBL3352727, “Synthesis, biological evaluation and docking analysis of 3-methyl-1-phenylchromeno[4,3-c]pyrazol-4(1H)-ones as potential cyclooxygenase-2 (COX-2) inhibitors” (Bioorg Med Chem Lett, 2014).

Key:
[1] = target: T1, Prostaglandin G/H synthase 1 (Ovis aries) (UniProt P05979); experiment: Inhibition of ovine COX1 assessed as reduction in PGF2alpha formation at 10 uM incubated for 18 hrs by enzyme immunoassay
T1 sequence (whole entry): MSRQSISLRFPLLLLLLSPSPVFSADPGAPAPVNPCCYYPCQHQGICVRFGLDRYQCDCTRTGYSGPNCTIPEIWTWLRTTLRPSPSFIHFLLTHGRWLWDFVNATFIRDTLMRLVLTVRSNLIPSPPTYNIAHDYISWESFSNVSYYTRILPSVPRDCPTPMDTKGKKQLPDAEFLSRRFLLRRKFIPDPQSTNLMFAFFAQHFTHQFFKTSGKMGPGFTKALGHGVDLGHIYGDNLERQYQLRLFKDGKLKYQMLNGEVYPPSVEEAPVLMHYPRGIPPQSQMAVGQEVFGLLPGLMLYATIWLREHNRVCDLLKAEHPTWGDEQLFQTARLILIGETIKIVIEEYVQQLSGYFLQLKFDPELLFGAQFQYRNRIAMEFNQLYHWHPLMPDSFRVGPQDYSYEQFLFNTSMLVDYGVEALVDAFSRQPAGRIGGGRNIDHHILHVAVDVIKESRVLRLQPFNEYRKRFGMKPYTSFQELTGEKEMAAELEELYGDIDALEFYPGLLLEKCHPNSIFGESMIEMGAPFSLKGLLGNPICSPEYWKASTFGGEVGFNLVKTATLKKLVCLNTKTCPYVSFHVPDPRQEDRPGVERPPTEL

[2] = test system: Rattus norvegicus; experiment: Anti-inflammatory activity in Sprague-Dawley rat model of carrageenan-induced paw edema assessed as inhibition of paw edema volume at 150 umol/kg, po dosed 1 hr before carrageenan challenge and measured 1 hr post carrageenan challenge; assay type: functional
[3] = test system: Rattus norvegicus; experiment: Anti-inflammatory activity in Sprague-Dawley rat model of carrageenan-induced paw edema assessed as inhibition of paw edema volume at 150 umol/kg, po dosed 1 hr before carrageenan challenge and measured 3 hrs post carrageenan challenge; assay type: functional
[4] = test system: Rattus norvegicus; experiment: Anti-inflammatory activity in Sprague-Dawley rat model of carrageenan-induced paw edema assessed as inhibition of paw edema volume at 150 umol/kg, po dosed 1 hr before carrageenan challenge and measured 5 hrs post carrageenan challenge; assay type: functional
[5] = target: T2, Prostaglandin G/H synthase 1 (Ovis aries, UniProt P05979); experiment: Inhibition of ovine COX1 assessed as reduction in PGF2alpha formation incubated for 18 hrs by enzyme immunoassay
T2 sequence (P05979 whole entry): T1 sequence (whole entry)

SMILES | inhibition [1] [%] | IC50 [5] [µM] | inhibition in vivo at 150 µmol/kg [2] [%] | inhibition in vivo at 150 µmol/kg [3] [%] | inhibition in vivo at 150 µmol/kg [4] [%]
COc1ccc2c(c1)oc(=O)c1c(C)nn(-c3ccc(Br)cc3)c12 | 27.3 |  |  |  | 
Cc1ccc(-c2cc(C(F)(F)F)nn2-c2ccc(S(N)(=O)=O)cc2)cc1 [CELECOXIB] |  |  | 24.4 | 38.8 | 51.4
COc1ccc2c(c1)oc(=O)c1c(C)nn(-c3ccccc3C(F)(F)F)c12 | 38.2 |  |  |  | 
Cc1nn(-c2ccc(C(F)(F)F)cc2)c2c1c(=O)oc1ccc(Cl)cc12 | 33.2 | > 30 | 23.3 | 36.1 | 57.8
Cc1nn(-c2ccccc2C(F)(F)F)c2c1c(=O)oc1ccccc12 | 34.6 |  |  |  | 
COc1ccc2c(c1)oc(=O)c1c(C)nn(-c3ccccc3)c12 | 43.2 |  |  |  | 
COc1ccc2c(c1)oc(=O)c1c(C)nn(-c3cc(C)ccc3C)c12 | 39.5 |  |  |  | 
COc1ccc2c(c1)oc(=O)c1c(C)nn(-c3ccc(C(F)(F)F)cc3)c12 | 33.2 | > 30 | 21.7 | 32.2 | 43.7
Cc1ccc(C)c(-n2nc(C)c3c(=O)oc4ccccc4c32)c1 | 21.3 |  |  |  | 
Cc1ccc(C)c(-n2nc(C)c3c(=O)oc4ccc(Cl)cc4c32)c1 | 39.2 |  |  |  | 
COc1ccc2c(c1)oc(=O)c1c(C)nn(-c3ccc(Cl)cc3)c12 | 34.8 |  |  |  | 

Now from value to molecule, other results behind:

inhibition [1] [%] | IC50 [5] [µM] | SMILES | inhibition in vivo at 150 µmol/kg [2] [%] | inhibition in vivo at 150 µmol/kg [3] [%] | inhibition in vivo at 150 µmol/kg [4] [%]
43.8 |  | Cc1nn(-c2ccccc2)c2c1c(=O)oc1ccc(Cl)cc12 |  |  | 
48.1 | > 30 | Cc1nn(-c2ccccc2)c2c1c(=O)oc1ccccc12 | 19.3 | 30.1 | 38.2
54.2 |  | Cc1nn(-c2ccccc2)c2c1c(=O)oc1ccc(Br)cc12 |  |  | 
34.8 |  | COc1ccc2c(c1)oc(=O)c1c(C)nn(-c3ccc(F)cc3)c12 |  |  | 
34.3 | > 30 | Cc1nn(-c2ccc(C(F)(F)F)cc2)c2c1c(=O)oc1ccccc12 | 27.6 | 40.4 | 59.9
28.3 | > 30 | Cc1nn(-c2ccc(F)cc2)c2c1c(=O)oc1ccccc12 | 24.6 | 39.8 | 55.6
43.7 | > 30 | Cc1nn(-c2ccc(Cl)cc2)c2c1c(=O)oc1ccccc12 | 21.3 | 35.2 | 49.4
30.5 |  | Cc1nn(-c2ccc(Cl)cc2Cl)c2c1c(=O)oc1ccccc12 |  |  | 
47.5 | > 30 | Cc1nn(-c2ccc(Br)cc2)c2c1c(=O)oc1ccccc12 | 14.2 | 27.8 | 37
